# According to ChEMBL document CHEMBL6109174, “The Prosperity and Adversity of M4 Muscarinic Acetylcholine Receptor Activators in the Treatment of Neuropsychiatric Disorders” (J Med Chem, 2025):
# Target: T1, Muscarinic acetylcholine receptor M4 (Homo sapiens, UniProt P08173)
# T1 sequence (P08173 whole entry): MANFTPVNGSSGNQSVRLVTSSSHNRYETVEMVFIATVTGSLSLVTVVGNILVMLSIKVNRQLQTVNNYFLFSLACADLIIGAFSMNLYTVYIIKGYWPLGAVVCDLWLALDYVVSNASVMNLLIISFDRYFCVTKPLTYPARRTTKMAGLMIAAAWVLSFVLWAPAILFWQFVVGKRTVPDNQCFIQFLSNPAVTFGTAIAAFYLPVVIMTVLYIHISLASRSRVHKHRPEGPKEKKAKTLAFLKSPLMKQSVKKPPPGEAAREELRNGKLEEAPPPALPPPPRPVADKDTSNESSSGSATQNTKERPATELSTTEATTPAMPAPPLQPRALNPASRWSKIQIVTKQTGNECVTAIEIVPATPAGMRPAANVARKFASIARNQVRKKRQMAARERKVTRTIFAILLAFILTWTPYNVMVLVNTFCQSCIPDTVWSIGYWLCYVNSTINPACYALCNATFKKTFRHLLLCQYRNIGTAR
# Test: Agonist activity at human M4 receptor
# Assay type: functional
row,EC50,Structure (SMILES)
1,200 nM,CCNC(=O)c1sc2nc(OC)c(Cl)c(C)c2c1N
2,39 nM,COc1nc2sc(C(=O)NC3CC3)c(N)c2c(C)c1Cl

# Target: T2, Muscarinic acetylcholine receptor M2 (Homo sapiens, UniProt P08172)
# T2 sequence (P08172 whole entry): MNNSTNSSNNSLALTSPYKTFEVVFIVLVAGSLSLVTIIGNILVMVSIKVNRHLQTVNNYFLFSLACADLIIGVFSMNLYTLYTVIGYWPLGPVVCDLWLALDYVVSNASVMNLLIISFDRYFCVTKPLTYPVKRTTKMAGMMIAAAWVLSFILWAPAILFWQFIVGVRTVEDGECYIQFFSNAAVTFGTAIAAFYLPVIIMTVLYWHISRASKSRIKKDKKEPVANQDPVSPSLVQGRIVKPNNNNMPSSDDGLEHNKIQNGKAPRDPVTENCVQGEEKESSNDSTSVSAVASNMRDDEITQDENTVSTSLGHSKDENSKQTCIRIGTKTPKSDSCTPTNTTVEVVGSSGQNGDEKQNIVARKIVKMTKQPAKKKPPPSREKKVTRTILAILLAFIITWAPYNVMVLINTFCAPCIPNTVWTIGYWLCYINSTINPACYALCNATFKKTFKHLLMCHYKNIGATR
# Test: Agonist activity at human M2 receptor
# Assay type: functional
row,Structure (SMILES),EC50
1,COC(=O)N1CCC(N2CCC(n3c(=O)n(C)c4ccccc43)CC2)CC1,135 nM

# Target: T1, Muscarinic acetylcholine receptor M4
# Test: Agonist activity at human recombinant M4 muscarinic acetylcholine receptor assessed as calcium mobilization by FLIPR analysis
# Assay type: functional
row,Structure (SMILES),EC50
1,Cc1cc(C)c2c(N)c(C(=O)NCc3ccco3)sc2n1,395 nM
2,Cc1nnc2sc(C(=O)NCc3ccc(-c4ccnc(F)c4)cc3)c(N)c2c1C,91 nM

# Now from value to compound:
row,EC50,Structure (SMILES)
1,403 nM,Cc1cc(C)c2c(N)c(C(=O)NCc3ccc4c(c3)OCO4)sc2n1
2,1.3 nM,Cc1cc(C)c2c(N)c(C(=O)NCc3ccccc3)sc2n1
3,400 nM,Cc1cc(C)c2c(N)c(C(=O)NCc3ccc(Cl)cc3)sc2n1
4,77 nM,Cc1nc2sc(C(=O)NCc3ccncc3)c(N)c2c(C)c1Cl
